Test results published in ChEMBL document CHEMBL1201862, “PubChem BioAssay data set” (2004).
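The compound was tested at five concentrations on cells cultured in 96-well plates, with a 48-hour exposure period. GI50 marks 50% less growth.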 Calls of active or inactive are those of the source. Rule as the data show it: active = GI50 up to about 1.1 µM and inactive = higher.

Columns and labels:
Assay in all cases: DTP human tumour cell line panel, 48 h
786-0 = tested on: 786-0
CAKI-1 = tested on: CAKI-1
HCC 2998 = tested on: HCC 2998
HOP-62 = tested on: HOP-62
Hs-578T = tested on: Hs-578T
KM12 = tested on: KM12
M14 = tested on: M14
MDA-MB-435 = tested on: MDA-MB-435
MDA-N = tested on: MDA-N
NCI-H460 = tested on: NCI-H460
OVCAR-8 = tested on: OVCAR-8
SF-268 = tested on: SF-268
SF-295 = tested on: SF-295
SF-539 = tested on: SF-539
SK-MEL-28 = tested on: SK-MEL-28
SK-MEL-5 = tested on: SK-MEL-5
SNB-19 = tested on: SNB-19
SNB-75 = tested on: SNB-75
SW-620 = tested on: SW-620
TK-10 = tested on: TK-10

| SMILES | GI50 (786-0) | GI50 (CAKI-1) | GI50 (HCC 2998) | GI50 (HOP-62) | GI50 (Hs-578T) | GI50 (KM12) | GI50 (M14) | GI50 (MDA-MB-435) | GI50 (MDA-N) | GI50 (NCI-H460) | GI50 (OVCAR-8) | GI50 (SF-268) | GI50 (SF-295) | GI50 (SF-539) | GI50 (SK-MEL-28) | GI50 (SK-MEL-5) | GI50 (SNB-19) | GI50 (SNB-75) | GI50 (SW-620) | GI50 (TK-10) |
| --- | --- | --- | --- | --- | --- | --- | --- | --- | --- | --- | --- | --- | --- | --- | --- | --- | --- | --- | --- | --- |
| CCC(C)C(C(=O)N/N=C1/SCC(=O)N1c1ccccc1)C(=O)N/N=C1/SCC(=O)N1c1ccccc1 (stereo not given) | > 100 µM (inactive) | > 100 µM (inactive) | > 100 µM (inactive) | 79.3 µM (inactive) | 32.5 µM (inactive) | 27.5 µM (inactive) | 47.1 µM (inactive) | 17.9 µM (inactive) | 27.2 µM (inactive) | > 100 µM (inactive) | 39.7 µM (inactive) | 44.9 µM (inactive) | > 100 µM (inactive) | > 100 µM (inactive) | 16.9 µM (inactive) | 22 µM (inactive) | > 100 µM (inactive) | 44.9 µM (inactive) | 41.9 µM (inactive) | > 100 µM (inactive) |
| CC(=O)N1N=C(c2c(O)ccc3ccccc23)CC1C(=O)c1ccco1 (stereo not given) | 30.8 µM (inactive) | 42.6 µM (inactive) | 50.1 µM (inactive) | 29.8 µM (inactive) | 34.5 µM (inactive) | 28.1 µM (inactive) | 22.4 µM (inactive) | 28.5 µM (inactive) | 23.9 µM (inactive) | 34.5 µM (inactive) | 39 µM (inactive) | 31.1 µM (inactive) | 35.2 µM (inactive) | 21.1 µM (inactive) | 30.9 µM (inactive) | 22.8 µM (inactive) |  | 17.9 µM (inactive) | 33.7 µM (inactive) | 60.3 µM (inactive) |
| CCOC(=O)c1nc2ccccc2nc1Oc1cc(OC)c(OC)c(OC)c1 | 38.1 µM (inactive) | 84.5 µM (inactive) | > 100 µM (inactive) | 31.4 µM (inactive) | 27.1 µM (inactive) | > 100 µM (inactive) | > 100 µM (inactive) | > 100 µM (inactive) | > 100 µM (inactive) | > 100 µM (inactive) | > 100 µM (inactive) | > 100 µM (inactive) | 45.2 µM (inactive) | 39.4 µM (inactive) | > 100 µM (inactive) | > 100 µM (inactive) | > 100 µM (inactive) | 44.3 µM (inactive) | > 100 µM (inactive) | 51.2 µM (inactive) |
| CCN(CC)CCN1C(=O)c2c(c(-c3ccccc3)c3ccccc3c2-c2ccccc2)C1=O | 37.6 µM (inactive) | > 100 µM (inactive) | > 100 µM (inactive) | 71.1 µM (inactive) | > 100 µM (inactive) | > 100 µM (inactive) | > 100 µM (inactive) | > 100 µM (inactive) | > 100 µM (inactive) | > 100 µM (inactive) | > 100 µM (inactive) | > 100 µM (inactive) | 71.6 µM (inactive) | 54.1 µM (inactive) |  | > 100 µM (inactive) | 46.3 µM (inactive) | > 100 µM (inactive) | > 100 µM (inactive) | > 100 µM (inactive) |
| COc1ccc(C2=C(N)c3c(OC)cccc3C2=O)cc1 | 85.1 µM (inactive) | > 100 µM (inactive) | > 100 µM (inactive) | 22.5 µM (inactive) | 61.4 µM (inactive) | > 100 µM (inactive) | 97.5 µM (inactive) | > 100 µM (inactive) | > 100 µM (inactive) | > 100 µM (inactive) | 62.2 µM (inactive) | 37.8 µM (inactive) | 86.1 µM (inactive) | 15 µM (inactive) | > 100 µM (inactive) |  | > 100 µM (inactive) | > 100 µM (inactive) | > 100 µM (inactive) | > 10 µM (inactive) |
| O=C(c1ccccc1)C1C(C(=O)c2ccccc2)N1Cc1ccccc1 (stereo not given) | 34.8 µM (inactive) | 75.3 µM (inactive) | 48.3 µM (inactive) | 30.5 µM (inactive) | 32.3 µM (inactive) | 27.8 µM (inactive) | 28.6 µM (inactive) | 21.8 µM (inactive) | 13.5 µM (inactive) | 29.2 µM (inactive) | 32.4 µM (inactive) | 37.1 µM (inactive) | 39.7 µM (inactive) |  | 32.7 µM (inactive) | 20 µM (inactive) | 37 µM (inactive) | 13.9 µM (inactive) | 44.1 µM (inactive) | 46.9 µM (inactive) |
| COc1ccc(-c2c(N)n(-c3cc(OC)cc(OC)c3)c(=O)c3cc([N+](=O)[O-])ccc23)cc1 | > 49.5 µM (inactive) | 31.4 µM (inactive) | > 100 µM (inactive) | > 100 µM (inactive) | 6.01 µM (inactive) | > 54.5 µM (inactive) | 32.4 µM (inactive) | 20.4 µM (inactive) | > 50.8 µM (inactive) | > 100 µM (inactive) | > 100 µM (inactive) | 29.4 µM (inactive) | > 100 µM (inactive) | > 78.3 µM (inactive) | > 100 µM (inactive) | 18 µM (inactive) | 28.3 µM (inactive) |  | > 87.7 µM (inactive) | > 26 µM (inactive) |
| [N-]=[N+]=NC1=C(N=[N+]=[N-])c2cccc3cccc(c23)C1=O | > 100 µM (inactive) | > 100 µM (inactive) | > 100 µM (inactive) | 49.7 µM (inactive) | > 100 µM (inactive) | 76.2 µM (inactive) | > 100 µM (inactive) | > 100 µM (inactive) | < 0.01 µM (active) | 58.9 µM (inactive) | > 100 µM (inactive) | > 100 µM (inactive) | > 100 µM (inactive) | > 100 µM (inactive) |  | > 100 µM (inactive) | > 100 µM (inactive) | > 100 µM (inactive) | 57.7 µM (inactive) | > 100 µM (inactive) |
| CCCNC(=O)CCC(C)[C@H]1CCC2C3C(C[C@H](OC(C)=O)[C@@]21C)[C@@]1(C)CCC2(C[C@H]1C[C@H]3OC(C)=O)OOC1(CCC(C)CC1)OO2 (stereo not given in full) | 16.2 µM (inactive) | 2.28 µM (inactive) | 40.1 µM (inactive) | 1.72 µM (inactive) | 31 µM (inactive) | 5.52 µM (inactive) | 26.4 µM (inactive) | 18.9 µM (inactive) | 14.3 µM (inactive) | 23.5 µM (inactive) | 19.5 µM (inactive) | 20 µM (inactive) | 26.7 µM (inactive) | 16.7 µM (inactive) | 89.7 µM (inactive) | 14.6 µM (inactive) | 80.2 µM (inactive) | 23 µM (inactive) |  | 28.7 µM (inactive) |
| O=C(O)Cc1c(-c2ccc([N+](=O)[O-])cc2)c(=O)oc2cc(O)ccc12 | 36.5 µM (inactive) | > 10 µM (inactive) | 25.1 µM (inactive) |  | 25.9 µM (inactive) | 26.9 µM (inactive) | 32.1 µM (inactive) | 28.8 µM (inactive) | 30.4 µM (inactive) | 28.9 µM (inactive) | 23.2 µM (inactive) | 34.8 µM (inactive) | 16.1 µM (inactive) | 32.4 µM (inactive) | 38 µM (inactive) | 18.1 µM (inactive) | 25.1 µM (inactive) |  | 34.8 µM (inactive) | 33.2 µM (inactive) |
| COC1/C=C\C=C(/C)C(=O)NC2=CC(=O)C(O)=C(CC(C)CC(OC)C(O)C(C)/C=C(\C)C1OC(N)=O)C2=O (stereo not given) | 10.1 µM (inactive) | 2.55 µM (inactive) | 1.4 µM (inactive) | 13.7 µM (inactive) | 3.13 µM (inactive) | 0.649 µM (active) | 0.56 µM (active) | 0.0537 µM (active) | 0.0364 µM (active) | 1.5 µM (inactive) | 0.351 µM (active) | 5.7 µM (inactive) | 4.99 µM (inactive) | 0.984 µM (active) | 0.316 µM (active) | 0.859 µM (active) | 15.8 µM (inactive) |  | 0.0158 µM (active) | 0.438 µM (active) |
| c1ccc(C2SCc3nc4cc5ccccc5cc4n32)cc1 (stereo not given) | 60.4 µM (inactive) | > 100 µM (inactive) | > 100 µM (inactive) | > 100 µM (inactive) | 60.3 µM (inactive) | > 100 µM (inactive) | > 100 µM (inactive) | > 100 µM (inactive) | > 100 µM (inactive) |  | > 100 µM (inactive) | > 100 µM (inactive) | 85.5 µM (inactive) | > 100 µM (inactive) | > 100 µM (inactive) |  | > 100 µM (inactive) | 70.1 µM (inactive) | > 100 µM (inactive) | > 100 µM (inactive) |
| COc1ccc2c(c1)C1=NCCN(C)c3ccc([N+](=O)[O-])c(c31)N2 | 0.43 µM (active) | 0.698 µM (active) | 1.26 µM (inactive) | 0.785 µM (active) | 1.66 µM (inactive) | 1.21 µM (inactive) | 1 µM (active) | 0.748 µM (active) | 0.546 µM (active) | 0.271 µM (active) | 0.9 µM (active) | 0.731 µM (active) | 1.02 µM (active) | 0.423 µM (active) | 2.55 µM (inactive) | 1.45 µM (inactive) | 0.652 µM (active) |  | 0.415 µM (active) | 2.86 µM (inactive) |
| C1=Nc2sc3c(c2C2=NCCN12)CCCC3 | 17.4 µM (inactive) | 17.4 µM (inactive) | 11.8 µM (inactive) | 20 µM (inactive) | 21.5 µM (inactive) | 17.2 µM (inactive) |  | 18.5 µM (inactive) | 20.1 µM (inactive) | 17.5 µM (inactive) | 17.1 µM (inactive) | 20.6 µM (inactive) | 21.5 µM (inactive) |  | 20.7 µM (inactive) | 18 µM (inactive) | 18.4 µM (inactive) | 18.9 µM (inactive) | 21 µM (inactive) | 16.6 µM (inactive) |
